Literature values in the PKSmart pharmacokinetics tables (Seal et al. 2025).

How the values were obtained:
[1] = not given per row; by the article one of three: Lombardo et al. 2013, J Clin Pharmacol 53:178, doi 10.1177/0091270012440282; 'New Drugs at FDA', novel drug approvals for 2021 and 2022 (the article's reference 43); Yap, Li, Chen 2006, J Mol Graph Model 24:383, doi 10.1016; conditions: human; for fraction unbound: plasma
[2] = Lombardo et al. 2013, J Clin Pharmacol 53:178, doi 10.1177/0091270012440282; conditions: for Vd / clearance: in vivo, iv; for fraction unbound: plasma
[3] = Lombardo, Berellini, Obach 2018, Drug Metab Dispos 46:1466, doi 10.1124/dmd.118.082966; conditions: human; for MRT / Vd / half-life / clearance: in vivo, iv; for fraction unbound: plasma

SMILES | clearance ([1]; in vivo) [mL/min/kg] | half-life ([1]; in vivo) [h] | fraction unbound [1] | Vd ([1]; in vivo) [L/kg] | Vd ([2]; rat) [L/kg] | MRT [3] [h] | Vd [3] [L/kg] | half-life [3] [h] | Vd ([2]; dog) [L/kg] | clearance ([2]; dog) [mL/min/kg] | fraction unbound ([2]; dog) | Vd ([2]; monkey) [L/kg] | clearance ([2]; monkey) [mL/min/kg] | fraction unbound ([2]; monkey) | clearance ([2]; rat) [mL/min/kg] | fraction unbound ([2]; rat) | clearance [3] [mL/min/kg] | fraction unbound [3]
NC(=O)c1ccc2c(c1O)[C@]13CCN(CC4CC4)[C@H](C2)[C@]1(O)CCC(=O)C3 | 11.1 | 9 | 0.72 | – | – | – | – | – | – | – | – | – | – | – | – | – | – | –
CS(=O)(=O)c1ccc(Oc2cc(F)cc(C#N)c2)c2c1[C@H](O)[C@H](F)[C@@H]2F | 2.03 | 14 | 0.55 | 2.17 | – | – | – | – | – | – | – | – | – | – | – | – | – | –
C[C@@H](O)C1C(=O)N2C(C(=O)O)=C(S[C@@H]3CNC(C(=O)N(C)C)C3)[C@H](C)[C@@H]12 (stereo partly specified) | 3.49 | – | – | – | – | – | – | – | – | – | – | – | – | – | – | – | – | –
OC[C@H]1CC[C@@H](n2cnc3c(O)ncnc32)O1 | 15.2 | – | – | – | – | – | – | – | – | – | – | – | – | – | – | – | – | –
C[C@@H](CN(C)C)CN1c2ccccc2CCc2ccccc21 | 15.9 | – | – | – | – | – | – | – | – | – | – | – | – | – | – | – | – | –
CN1CCN(C2=Nc3cc(Cl)ccc3Nc3ccccc32)CC1 | – | – | – | – | 8.68 | 11 | 1.6 | 10 | – | – | – | – | – | – | – | – | – | –
CO[C@@]1(NC(=O)CSCC#N)C(=O)N2C(C(=O)O)=C(CSc3nnnn3C)CS[C@@H]21 | – | – | – | – | 0.35 | 1.5 | 0.13 | 1.5 | 0.9 | 8 | 0.75 | 0.3 | 3.3 | 0.34 | 25.3 | 0.55 | 1.5 | 0.15
CC1(C)S[C@@H]2C(NC(=O)C(NC(=O)N3CCN(S(C)(=O)=O)C3=O)c3ccccc3)C(=O)N2C1C(=O)O (stereo partly specified) | – | – | – | – | 0.3 | 0.71 | 0.09 | 1.2 | – | – | – | – | – | – | 50 | 0.65 | 2.1 | 0.7
O=P(O)(O)C(O)(Cn1ccnc1)P(=O)(O)O | – | – | – | – | – | 4.5 | 0.6 | 11 | 0.28 | 4.13 | – | – | – | – | – | – | 2.2 | 0.78
NC[C@H]1O[C@H](O[C@H]2[C@H](O)[C@@H](O[C@H]3O[C@H](CO)[C@@H](O)[C@H](N)[C@H]3O)[C@H](N)C[C@@H]2N)[C@H](N)C[C@@H]1O | – | – | – | – | 0.68 | 2.4 | 0.23 | 2 | – | – | – | – | – | – | 15.7 | – | 1.6 | 1
CC1CC(=O)NN=C1c1ccc(NN=C(C#N)C#N)cc1 (stereo unspecified) | – | – | – | – | – | 1.1 | 0.24 | 1.1 | 0.22 | 3.37 | – | – | – | – | – | – | 3.8 | 0.02
CNC1(c2ccccc2Cl)CCCCC1=O (stereo unspecified) | – | – | – | – | 3.68 | 2.5 | 2.9 | 2.8 | 2.5 | 32.2 | 0.47 | – | – | – | 115 | – | 19 | 0.47
Cn1c(=O)c2c(ncn2C)n(C)c1=O | – | – | – | – | 0.92 | 7.5 | 0.63 | 4.9 | 0.76 | 2.35 | – | 0.83 | 3.06 | – | 12.5 | – | 1.4 | –
CCOc1ccc(NC(C)=O)cc1 | – | – | – | – | – | 1.1 | 1.4 | 0.92 | 0.89 | 15.7 | – | – | – | – | – | – | – | 0.47
Cc1cccc(Nc2ccncc2S(=O)(=O)NC(=O)NC(C)C)c1 | – | – | – | – | 0.23 | 6.6 | 0.21 | 5.1 | 0.08 | 0.14 | 0.02 | – | – | – | 3.74 | 0.06 | 0.53 | –
CN(C)CCc1c[nH]c2ccc(Cn3cncn3)cc12 | – | – | – | – | – | 2 | 1.9 | 2.2 | 2.5 | 40 | – | – | – | – | 79 | – | 16 | –
COc1ccc(C(CN(C)C)C2(O)CCCCC2)cc1 (stereo unspecified) | – | – | – | – | 6.6 | 5.2 | 4.4 | 5 | 3.3 | 13.5 | 0.593 | 3.5 | 41 | 0.708 | 64.5 | – | 14 | –
CC[C@H](OC(C)=O)C(C[C@H](C)N(C)C)(c1ccccc1)c1ccccc1 | – | – | – | – | – | 26 | 8.3 | – | 5.9 | 28 | – | – | – | – | – | – | 5.4 | 0.2
CCCC1O[C@@H]2C[C@H]3[C@@H]4CC=C5CC(=O)C=C[C@]5(C)[C@H]4[C@@H](O)C[C@]3(C)[C@]2(C(=O)CO)O1 (stereo partly specified) | – | – | – | – | 29.2 | 3.2 | 3.9 | 2.8 | – | – | – | – | – | – | 72 | 0.039 | 20 | –
Cc1cccc(C)c1NC(=O)C(C)N (stereo unspecified) | – | – | – | – | 5 | 14 | 1.8 | 12 | – | – | – | – | – | – | 37.8 | – | 2.2 | –
CC(=O)CC(c1ccccc1)c1c(O)c2ccccc2oc1=O (stereo unspecified) | – | – | – | – | 0.24 | 39 | 0.13 | – | 0.28 | 0.3 | – | – | – | – | 0.17 | 0.405 | – | –
CN1CCCC(n2nc(Cc3ccc(Cl)cc3)c3ccccc3c2=O)CC1 (stereo unspecified) | – | – | – | – | 1.8 | 27 | 15 | 22 | 8.1 | 50 | 0.0826 | – | – | – | 58 | 0.1 | 9 | 0.17
CCC1(c2cccc(O)c2)CCCCN(C)C1 (stereo unspecified) | – | – | – | – | 4.4 | 2 | 3.3 | 1.7 | – | – | – | – | – | – | 58.4 | – | 28 | 0.73
CCCCNC(=O)NS(=O)(=O)c1ccc(C)cc1 | – | – | – | – | 0.13 | 9.5 | 0.12 | 7 | – | – | – | – | – | – | 0.42 | – | – | –
